Source: US20100173918A1, “METHODS AND COMPOSITIONS FOR DETERMINING THE EFFICACY OF BREAST CANCER THERAPEUTICS” (TARGETED MOLECULAR DIAGNOSTICS, LLC, priority 2007, published 2010)
Values joined by “and” are separate entries in the source; they are usually repeats but may differ in a detail not shown here. Equal entries are not always repeated.

Key:
[1] = test system: patients with IBC (inflammatory breast cancer); assay: EGF103009 open-label study of lapatinib monotherapy: clinical response (skin criteria / RECIST) and progression-free survival; type: in vivo, human; design: key to RECIST Response: CR: complete response; PR: partial response; SD: stable disease; details: for RECIST Response / Skin Response: individual patient, lapatinib 1,500 mg once daily
Text: Patients: Eligible adults (18 years of age) had histologically confirmed IBC (Inflammatory breast cancer) and a clinical diagnosis of IBC (e.g., presence of diffuse erythema and edema [peau d'orange], with or without an underlying palpable mass, involving the majority of the skin of the breast). Pathologic evidence of dermal lymphatic invasion was not required. […] EGF103009 was approved by the institutional review board from each participating institution, and written informed consent was obtained from all patients.
Tumor biomarkers were analyzed in a blinded manner at a central Clinical Laboratory Improvement Amendments—certified College of American Pathology reference laboratory (Targeted Molecular Diagnostics, Westmont, Ill.) (Spector N. L., et al., J Clin Oncol 23:2502-2512 (2005)). […] The study design consisted of two stages; two responses were required in the first fifteen patients in either cohort before an additional fifteen patients were enrolled in that cohort (Green-Dahlberg design).
Patients underwent regular physical examinations and evaluations of performance status, body weight, CBC, serum chemistry, left ventricular ejection fraction by multiple gated acquisition scan or echocardiogram, and if applicable, digital photography to evaluate changes in chest wall/[…] disease or assessment by imaging studies, computed tomography scan or magnetic resonance imaging.
Efficacy and Safety Evaluation: Clinical response was assessed at 4-week intervals and imaging performed at 8-week intervals until disease progression or withdrawal from study. […] Toxicity was graded according to the National Cancer Institute Common Terminology Criteria (NC1-CTCAE), version 3.0.
Statistical Analysis: The statistical focus of the study was to test the null hypothesis that the overall response rate (ORR) is no more than 15% versus the alternative hypothesis that this rate is at least 40%. Each cohort consisted of two stages, such that if there were fewer than two responses at the end of stage 1 (15 patients), then the cohort would be closed in favor of the null hypothesis. […] Kaplan-Meier estimates of progression-free survival ([…]) were computed separately for cohort A and B. For this exploratory analysis, there were no statistical comparisons made between cohorts.

[2] = EGF103009 study of lapatinib monotherapy: safety / adverse events; type: in vivo, human
[3] = Cohort A (HER-2 overexpressing IBC)
[4] = Cohort B (EGFR expression without HER-2 overexpression)
[5] = N = 45, >20% decrease in LVEF, asymptomatic and/or below lower limit of normal
[6] = N = 45, mostly musculoskeletal pain (76% of cases)
[7] = N = 45, one report of rash was not graded

CS(=O)(=O)CCNCc1ccc(-c2ccc3ncnc(Nc4ccc(OCc5cccc(F)c5)c(Cl)c4)c3c2)o1 [lapatinib, Lapatinib ditosylate]
time by which all responses in the skin occurred (first assessment) ([1]; cohort A): ≤ 4 week | patients with response to lapatinib among those who received prior trastuzumab therapy ([1]; cohort A, 15 patients with prior trastuzumab): six | patients who experienced response ([1]; cohort A, HER-2+ IBC, n = 30): 15 of 30 | patients whose best clinical response was a CR in chest wall/skin or RECIST-measurable lesions ([1]; cohort A, n = 30): 7% | patients with a PR in chest wall/skin and/or RECIST-measurable lesions as best response ([1]; cohort A, n = 30): 43% | patients who responded ([1]; cohort A, tumors coexpressing pHER-2 and pHER-3): nine of 10 | patients who responded ([1]; cohort A, tumors not coexpressing pHER-2 and pHER-3): four of 14 | median PFS ([1]; cohort A, median follow-up 15.3 weeks): 14 weeks | patients with a clinical response (PR in skin/chest disease) ([1]; cohort B, n = 15): one of 15 | median PFS ([1]; cohort B, median follow-up 4.1 weeks): 4 weeks | RECIST Response [1, 3]: PR* (4×) and PR (3×) and SD (7×) | Skin Response [1, 3]: PR (more than 50% decrease in extent of skin disease from baseline documented by digital photography) | RECIST Response [1, 4]: SD | Skin Response [1, 4]: PR (more than 50% decrease in extent of skin disease from baseline documented by digital photography) | Anemia, Grade > 3 % ([2]; N = 45): 4% | Anemia, Grade > 3 No. ([2]; N = 45): 2 | Anemia, Total % ([2]; N = 45): 7% | Anemia, Total No. of Patients ([2]; N = 45): 3 | Anorexia, Grade > 3 % ([2]; N = 45): 2% | Anorexia, Grade > 3 No. ([2]; N = 45): 1 | Anorexia, Total % ([2]; N = 45): 22% | Anorexia, Total No. of Patients ([2]; N = 45): 10 | Constipation, Grade > 3 % ([2]; N = 45): 0% | Constipation, Grade > 3 No. ([2]; N = 45): 0 | Constipation, Total % ([2]; N = 45): 7% | Constipation, Total No. of Patients ([2]; N = 45): 3 | Decreased LVEF, Grade > 3 % ([2]; N = 45): 0% | Decreased LVEF, Grade > 3 No. ([2]; N = 45): 0 | Diarrhea, Grade > 3 % ([2]; N = 45): 11% | Diarrhea, Grade > 3 No. ([2]; N = 45): 5 | Diarrhea, Total % ([2]; N = 45): 60% | Diarrhea, Total No. of Patients ([2]; N = 45): 27 | Dyspnea, Grade > 3 % ([2]; N = 45): 11% | Dyspnea, Grade > 3 No. ([2]; N = 45): 5 | Dyspnea, Total % ([2]; N = 45): 20% | Dyspnea, Total No. of Patients ([2]; N = 45): 9 | Edema, Grade > 3 % ([2]; N = 45): 2% | Edema, Grade > 3 No. ([2]; N = 45): 1 | Edema, Total % ([2]; N = 45): 13% | Edema, Total No. of Patients ([2]; N = 45): 6 | Elevated ALT/AST, Grade > 3 % ([2]; N = 45): 4% | Elevated ALT/AST, Grade > 3 No. ([2]; N = 45): 2 | Elevated ALT/AST, Total % ([2]; N = 45): 7% | Elevated ALT/AST, Total No. of Patients ([2]; N = 45): 3 | Elevated alkaline phosphatase, Grade > 3 % ([2]; N = 45): 0% | Elevated alkaline phosphatase, Grade > 3 No. ([2]; N = 45): 0 | Elevated alkaline phosphatase, Total % ([2]; N = 45): 9% | Elevated alkaline phosphatase, Total No. of Patients ([2]; N = 45): 4 | Fatigue, Grade > 3 % ([2]; N = 45): 0% | Fatigue, Grade > 3 No. ([2]; N = 45): 0 | Fatigue, Total % ([2]; N = 45): 24% | Fatigue, Total No. of Patients ([2]; N = 45): 11 | Hyperbilirubinemia, Grade > 3 % ([2]; N = 45): 2% | Hyperbilirubinemia, Grade > 3 No. ([2]; N = 45): 1 | Hyperbilirubinemia, Total % ([2]; N = 45): 9% | Hyperbilirubinemia, Total No. of Patients ([2]; N = 45): 4 | Infection, Grade > 3 % ([2]; N = 45): 4% | Infection, Grade > 3 No. ([2]; N = 45): 2 | Infection, Total % ([2]; N = 45): 13% | Infection, Total No. of Patients ([2]; N = 45): 6 | Nausea, Grade > 3 % ([2]; N = 45): 0% | Nausea, Grade > 3 No. ([2]; N = 45): 0 | Nausea, Total % ([2]; N = 45): 24% | Nausea, Total No. of Patients ([2]; N = 45): 11 | Pain, Grade > 3 % ([2]; N = 45): 16% | Pain, Grade > 3 No. ([2]; N = 45): 7 | Pleural effusion, Grade > 3 % ([2]; N = 45): 9% | Pleural effusion, Grade > 3 No. ([2]; N = 45): 4 | Pleural effusion, Total % ([2]; N = 45): 11% | Pleural effusion, Total No. of Patients ([2]; N = 45): 5 | Pruritus, Grade > 3 % ([2]; N = 45): 0% | Pruritus, Grade > 3 No. ([2]; N = 45): 0 | Pruritus, Total % ([2]; N = 45): 11% | Pruritus, Total No. of Patients ([2]; N = 45): 5 | Rash, Grade > 3 % ([2]; N = 45): 0% | Rash, Grade > 3 No. ([2]; N = 45): 0 | Vomiting, Grade > 3 % ([2]; N = 45): 0% | Vomiting, Grade > 3 No. ([2]; N = 45): 0 | Vomiting, Total % ([2]; N = 45): 20% | Vomiting, Total No. of Patients ([2]; N = 45): 9 | grade ½ diarrhea ([2]; N = 45): 49% | grade ½ musculoskeletal pain ([2]; N = 45): 42% | grade ½ skin rash ([2]; N = 45): 36% | Decreased LVEF, Total % [2, 5]: 7% | Decreased LVEF, Total No. of Patients [2, 5]: 3 | Pain, Total % [2, 6]: 58% | Pain, Total No. of Patients [2, 6]: 26 | Rash, Total % [2, 7]: 36% | Rash, Total No. of Patients [2, 7]: 16 | tolerability of lapatinib monotherapy ([2]; both cohorts): generally well tolerated
